Reference: PubChem BioAssay AID1963432 (Molecular Pharmacology Branch, DTP, NCI, 2024)

Test system: SYO-1 complex spheroid growth, percent test/control
Assay: Anticancer human tumor SYO-1 cell line growth inhibition [Asc];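 note: compound exposure lasted 7 days after spheroids grew 3 days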;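 for viability, T/C: 100% = DMSO vehicle control viability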
Details: for IC50: curve of first compound; for viability, T/C: stronger effect = lower value
Procedure, shortened: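 Tumor cells were grown as complex spheroids with human endothelial cells (HUVEC) and human mesenchymal stem cells as stroma. Agents were tested alone and in combination, in half-log steps down from the clinical Cmax, or from 10 microM where Cmax was unknown.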

Compound: C=C(F)C(=O)N1CCN(c2nc(OCC3CCCN3C)nc3c2CCN(c2cccc4cccc(Cl)c24)C3)CC1CC#N (centres undefined) + Cc1c(S(C)(=O)=O)c(-c2cc(F)cc(N3CCN(c4ccc(NS(=O)(=O)c5ccc(NC(CCN6CCC(C(=O)OCCCP(=O)(O)O)CC6)CSc6ccccc6)c(S(=O)(=O)C(F)(F)F)c5)cc4)CC3)c2)c(-c2ccc(Cl)cc2)n1C(C)C
- IC50 (second compound 0.0316 µM): 4950 nM
- IC50 (second compound 0.1 µM): 3360 nM
- IC50 (second compound 0.316 µM): 1740 nM
- IC50 (second compound 1 µM): 1730 nM
- IC50 (second compound 3.16 µM): 1670 nM
- IC50 (second compound 10 µM): 1590 nM
- viability, T/C (second compound 0.0316 µM, first compound 0.0316 µM): 97.2%
- viability, T/C (second compound 0.0316 µM, first compound 0.1 µM): 87.6%
- viability, T/C (second compound 0.0316 µM, first compound 0.316 µM): 97.8%
- viability, T/C (second compound 0.0316 µM, first compound 1 µM): 101%
- viability, T/C (second compound 0.0316 µM, first compound 3.16 µM): 81.6%
- viability, T/C (second compound 0.0316 µM, first compound 10 µM): 0.62%
- viability, T/C (second compound 0.1 µM, first compound 0.0316 µM): 92.7%
- viability, T/C (second compound 0.1 µM, first compound 0.1 µM): 96.7%
- viability, T/C (second compound 0.1 µM, first compound 0.316 µM): 96.3%
- viability, T/C (second compound 0.1 µM, first compound 1 µM): 98.3%
- viability, T/C (second compound 0.1 µM, first compound 3.16 µM): 52.8%
- viability, T/C (second compound 0.1 µM, first compound 10 µM): 0.77%
- viability, T/C (second compound 0.316 µM, first compound 0.0316 µM): 98.8%
- viability, T/C (second compound 0.316 µM, first compound 0.1 µM): 97%
- viability, T/C (second compound 0.316 µM, first compound 0.316 µM): 97.3%
- viability, T/C (second compound 0.316 µM, first compound 1 µM): 95.1%
- viability, T/C (second compound 0.316 µM, first compound 3.16 µM): 1.32%
- viability, T/C (second compound 0.316 µM, first compound 10 µM): 0.42%
- viability, T/C (second compound 1 µM, first compound 0.0316 µM): 89.6%
- viability, T/C (second compound 1 µM, first compound 0.1 µM): 89.7%
- viability, T/C (second compound 1 µM, first compound 0.316 µM): 88.4%
- viability, T/C (second compound 1 µM, first compound 1 µM): 109%
- viability, T/C (second compound 1 µM, first compound 3.16 µM): 0.8%
- viability, T/C (second compound 1 µM, first compound 10 µM): 1.26%
- viability, T/C (second compound 3.16 µM, first compound 0.0316 µM): 92.9%
- viability, T/C (second compound 3.16 µM, first compound 0.1 µM): 78.6%
- viability, T/C (second compound 3.16 µM, first compound 0.316 µM): 87.8%
- viability, T/C (second compound 3.16 µM, first compound 1 µM): 97.6%
- viability, T/C (second compound 3.16 µM, first compound 3.16 µM): 0.94%
- viability, T/C (second compound 3.16 µM, first compound 10 µM): 1.06%
- viability, T/C (second compound 10 µM, first compound 0.0316 µM): 89.5%
- viability, T/C (second compound 10 µM, first compound 0.1 µM): 78.9%
- viability, T/C (second compound 10 µM, first compound 0.316 µM): 71.5%
- viability, T/C (second compound 10 µM, first compound 1 µM): 91.6%
- viability, T/C (second compound 10 µM, first compound 3.16 µM): 0.9%
- viability, T/C (second compound 10 µM, first compound 10 µM): 0.74%

Compound: CCN1C(C(=O)NC23CCC(C(=O)O)(CC2)CC3)C(c2cccc(Cl)c2F)C2(C(=O)Nc3cc(Cl)ccc32)C12CCCCC2 (centres undefined) + Cc1c(S(C)(=O)=O)c(-c2cc(F)cc(N3CCN(c4ccc(NS(=O)(=O)c5ccc(NC(CCN6CCC(C(=O)OCCCP(=O)(O)O)CC6)CSc6ccccc6)c(S(=O)(=O)C(F)(F)F)c5)cc4)CC3)c2)c(-c2ccc(Cl)cc2)n1C(C)C
- IC50 (second compound 0.0316 µM): 131 nM
- IC50 (second compound 0.1 µM): 127 nM
- IC50 (second compound 0.316 µM): 90.6 nM
- IC50 (second compound 1 µM): 64.8 nM
- IC50 (second compound 3.16 µM): 44.3 nM
- IC50 (second compound 10 µM): 35.7 nM
- viability, T/C (second compound 0.0316 µM, first compound 0.00949 µM): 97.6%
- viability, T/C (second compound 0.0316 µM, first compound 0.03 µM): 88.5%
- viability, T/C (second compound 0.0316 µM, first compound 0.0949 µM): 65%
- viability, T/C (second compound 0.0316 µM, first compound 0.3 µM): 13.6%
- viability, T/C (second compound 0.0316 µM, first compound 0.949 µM): 2.07%
- viability, T/C (second compound 0.0316 µM, first compound 3 µM): 0.87%
- viability, T/C (second compound 0.1 µM, first compound 0.00949 µM): 91.7%
- viability, T/C (second compound 0.1 µM, first compound 0.03 µM): 80.9%
- viability, T/C (second compound 0.1 µM, first compound 0.0949 µM): 64.2%
- viability, T/C (second compound 0.1 µM, first compound 0.3 µM): 10.4%
- viability, T/C (second compound 0.1 µM, first compound 0.949 µM): 1.25%
- viability, T/C (second compound 0.1 µM, first compound 3 µM): 0.54%
- viability, T/C (second compound 0.316 µM, first compound 0.00949 µM): 86.6%
- viability, T/C (second compound 0.316 µM, first compound 0.03 µM): 78.7%
- viability, T/C (second compound 0.316 µM, first compound 0.0949 µM): 49.5%
- viability, T/C (second compound 0.316 µM, first compound 0.3 µM): 4.49%
- viability, T/C (second compound 0.316 µM, first compound 0.949 µM): 0.85%
- viability, T/C (second compound 0.316 µM, first compound 3 µM): 0.62%
- viability, T/C (second compound 1 µM, first compound 0.00949 µM): 87.4%
- viability, T/C (second compound 1 µM, first compound 0.03 µM): 77.6%
- viability, T/C (second compound 1 µM, first compound 0.0949 µM): 36.4%
- viability, T/C (second compound 1 µM, first compound 0.3 µM): 4.69%
- viability, T/C (second compound 1 µM, first compound 0.949 µM): 0.8%
- viability, T/C (second compound 1 µM, first compound 3 µM): 0.39%
- viability, T/C (second compound 3.16 µM, first compound 0.00949 µM): 77.5%
- viability, T/C (second compound 3.16 µM, first compound 0.03 µM): 63.4%
- viability, T/C (second compound 3.16 µM, first compound 0.0949 µM): 23.8%
- viability, T/C (second compound 3.16 µM, first compound 0.3 µM): 2.4%
- viability, T/C (second compound 3.16 µM, first compound 0.949 µM): 0.61%
- viability, T/C (second compound 3.16 µM, first compound 3 µM): 0.43%
- viability, T/C (second compound 10 µM, first compound 0.00949 µM): 75.9%
- viability, T/C (second compound 10 µM, first compound 0.03 µM): 56.7%
- viability, T/C (second compound 10 µM, first compound 0.0949 µM): 12.4%
- viability, T/C (second compound 10 µM, first compound 0.3 µM): 2.09%
- viability, T/C (second compound 10 µM, first compound 0.949 µM): 0.69%
- viability, T/C (second compound 10 µM, first compound 3 µM): 0.46%
